# According to patent publication US6069166A, “Fused heterocyclic benzenecarboxamide derivatives and PGD2 antagonists comprising them” (Shionogi & Co., Ltd., priority 1996, dated 2000):
# Key:
# [1] = target: T1, PGD2 Receptor (Homo sapiens, UniProt Q13258); assay: Binding to PGD2 receptor (human platelet membrane fraction, [3H]PGD2); conditions: human platelet membrane fraction 0.1 mg, 5 nM [3H]PGD2, 4° C., 90 min, pH 7.4; read-out: IC50 (inhibition of [3H]PGD2 binding)
# T1 construct: A suspension adjusted to contain platelet at a final concentration of; endogenous in cells; host or cells: washed human platelets from peripheral blood of a healthy volunteer
# T1 sequence (Q13258 1-359): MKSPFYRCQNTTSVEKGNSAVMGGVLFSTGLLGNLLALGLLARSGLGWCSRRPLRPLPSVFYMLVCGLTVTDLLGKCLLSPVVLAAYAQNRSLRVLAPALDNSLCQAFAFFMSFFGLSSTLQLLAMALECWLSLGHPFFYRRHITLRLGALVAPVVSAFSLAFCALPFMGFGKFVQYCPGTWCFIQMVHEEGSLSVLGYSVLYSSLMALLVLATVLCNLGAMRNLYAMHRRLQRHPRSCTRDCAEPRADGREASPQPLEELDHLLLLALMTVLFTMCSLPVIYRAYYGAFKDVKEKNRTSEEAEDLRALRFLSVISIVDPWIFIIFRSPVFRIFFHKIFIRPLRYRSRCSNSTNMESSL
# Protocol: Experiment 1 Binding to PGD2 Receptor
# (1) Preparation of Human Platelet Membrane Fraction
# Blood sample was obtained using a plastic syringe containing 3.8% sodium citrate from the vein of healthy volunteers (adult male and female), put into a plastic test tube and mixed gently by rotation. The sample was then centrifuged at 1800 rpm, 10 min at room temperature, and the supernatant containing PRP (platelet-rich plasma) was collected. The PRP was re-centrifuged at […], 22 min at room temperature to obtain platelets. The platelets were homogenized using a homogenizer (Ultra-Turrax) followed by centrifugation 3 times at 20,000 rpm, 10 min at 4° C. to obtain a platelet membrane fraction. After protein determination, the membrane fraction was adjusted to 2 mg/ml and preserved in a refrigerator at -80° C. until use.
# (2) Binding to PGD2 Receptor
# To a binding-reaction solution (50 mM Tris/HCl, pH 7.4, 5 mM MgCl2) (0.2 ml) were added the human platelet membrane fraction (0.1 mg) and 5 nM [^3 H]PGD2 (115Ci/mmol), and reacted at 4° C. for 90 min. After the reaction completed, the reaction mixture was filtered through a glass fiber filter paper, washed several times with cooled saline, and measured the radioactivity retained on the filter paper. The specific binding was calculated by subtracting the non-specific binding (the binding in the presence of 10 μM PGD2) from the total binding. The inhibitory activity of each compound was expressed as the concentration required for 50% inhibition (IC50), which was determined by depicting a substitution curve by plotting the binding ratio (%) in the presence of each compound, where the binding ratio in the absence of a test compound is 100%.
# [2] = target: T1, PGD2 Receptor; assay: Antagonistic activity against PGD2 receptor using human platelet (PGD2-induced cAMP increase); assay type: cell-based; conditions: human platelets 5×10^8/ml, 0.1 μM PGD2, IBMX 0.5 mM, cAMP by radioimmunoassay; read-out: IC50 (inhibition of cAMP increased by PGD2)
# Protocol: Experiment 2 Evaluation of Antagonistic Activity Against PGD2 Receptor Using Human Platelet Peripheral blood was obtained from a healthy volunteer using a syringe in which 1/9 volume of citric acid/dextrose solution has been previously added. The syringe was subjected to centrifugation at 180 g for 10 min to obtain the supernatant (PRP:platelet rich plasma). The resultant PRP was washed 3 times with a washing buffer and the number of platelet was counted with a micro cell counter. A suspension adjusted to contain platelet at a final concentration of 5×10^8 /ml was warmed at 37° C., and then subjected to the pre-treatment with 3-isobutyl-1-methylxanthine (0.5 mM) for 5 min. To the suspension was added a test compound diluted at various concentration. Ten-minute later, the reaction was induced by the addition of 0.1 μM PGD2 and, 2-minute later, stopped by the addition of hydrochloric acid. The platelet was destroyed with an ultrasonic homogenizer. After centrifugation, the cAMP in the supernatant was determined by radioimmunoassay. PGD2 receptor antagonism of a drug was evaluated as follows. The inhibition rate regarding cAMP increased by the addition of PGD2 was determined at individual concentration, and then the concentration of the drug required for 50% inhibition (IC50) was calculated.
# [3] = test system: nasal blockage (intranasal pressure); assay: Nasal blockage model in sensitized guinea pigs (intranasal pressure after OVA challenge); assay type: in vivo, Hartley male guinea pig; conditions: oral, 60 min before antigen exposure; AUC of intranasal pressure 0-30 min vs vehicle; dose not given
# Protocol: Experiment 3 Experiment Using Nasal Blockage Model
# The method used for measuring the intranasal pressure for evaluating the anti-nasal blockage using guinea pigs is described below.
# A 1% ovalbumin (OVA) solution was treated with an ultrasonic nebulizer to obtain an aerosol. Hartley male guinea pig was sensitized by inhaling twice the aerosol for 10 min at one-week interval. Seven-day after the sensitization, the guinea pig was exposed to an antigen to initiate the reaction. Briefly, the trachea was incised under the anesthesia with pentobarbital (30 mg/kg. i.p.) and cannulas were inserted into the trachea at the pulmonary and nasal cavity sides. The canal inserted at the pulmonary side was connected with an artificial respirator that provides 4 ml air 60 times/min. After arresting the spontaneous respiration of the guinea pig with Gallamin (2 mg/kg, i.v.), air was supplied to the snout side with an artificial respirator at the frequency of 70 times/min, and the flow rate of 4 ml air/time, and the atmospheric pressure required for the aeration was measured by the use of a transducer fitted at the branch. The measurement was used as a parameter of the nasal cavity resistance. The exposure of an antigen was carried out by generating aerosol of 3% OVA solution for 3 min between the respirator and the nasal cavity cannula. […]
Compound,IC50 [1] [nM],IC50 [2] [nM],Inhibitory Rate (%) [3] [%]
COc1csc2c(C(=O)N[C@@H]3[C@@H](C/C=C\CCCC(=O)O)C[C@H]4C[C@@H]3C4(C)C)cccc12 [IA-a-9],0.41,4.4,–
CC1(C)[C@H]2C[C@H](C/C=C\CCCC(=O)O)[C@@H](NC(=O)c3cccc4ccsc34)[C@@H]1C2 [IA-a-1],26,42,80
CC1(C)[C@H]2C[C@H](C/C=C\CCCC(=O)O)[C@@H](NC(=O)c3cccc4c(Br)csc34)[C@@H]1C2 [IA-a-7],1.2,11,–
Cc1csc2c(C(=O)N[C@@H]3[C@@H](C/C=C\CCCC(=O)O)C[C@H]4C[C@@H]3C4(C)C)cccc12 [IA-a-4],11,150,–
